From paper PMC5570900, “Exploiting a novel conformational switch to control innate immunity mediated by complement protein C3a” (Nature Communications, 2017)

Molecular target: T1, C3aR (Homo sapiens, UniProt Q16581)
T1 sequence (Q16581 1-482): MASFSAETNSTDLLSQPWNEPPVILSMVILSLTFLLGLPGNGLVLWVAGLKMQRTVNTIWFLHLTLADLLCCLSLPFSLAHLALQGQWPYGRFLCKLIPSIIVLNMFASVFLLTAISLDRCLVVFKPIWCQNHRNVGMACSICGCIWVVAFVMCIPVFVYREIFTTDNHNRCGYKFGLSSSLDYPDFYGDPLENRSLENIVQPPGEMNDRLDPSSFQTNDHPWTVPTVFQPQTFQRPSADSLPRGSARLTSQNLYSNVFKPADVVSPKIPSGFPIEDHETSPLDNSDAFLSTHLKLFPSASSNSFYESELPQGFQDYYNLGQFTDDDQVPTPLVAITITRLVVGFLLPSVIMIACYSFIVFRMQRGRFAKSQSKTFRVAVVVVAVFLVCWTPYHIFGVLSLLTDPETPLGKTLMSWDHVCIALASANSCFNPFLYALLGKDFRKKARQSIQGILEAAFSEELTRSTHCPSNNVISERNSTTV
Assay: Inhibition of hC3a-induced histamine secretion in human LAD2 mast cells (antagonist mode)
Type: cell-based
Set-up: Concentration-dependent histamine secretion in human LAD2 mast cells; endogenous in cells; host or cells: LAD2 human mast cells
Details: hC3a 100 nM, pre-treated 30 min, n ≥ 3, ± SEM
Description: LAD2 human mast cells (kindly provided by Dr Dean Metcalfe, National Institute of Allergy and Infectious Diseases, National Institute of Health) were cultured in StemPro®-34 Serum Free Media (Invitrogen, Australia) supplemented with StemPro®-34 nutrient, 100 U/mL penicillin, 100 μg/mL streptomycin, 2 mM GlutaMAX, and 100 ng/mL human stem cell factor (SCF). Cells were hemi-depleted weekly and were not allowed to grow beyond a density of 0.5 × 10^6/mL. This cell line was authenticated by expression of tryptase and histamine granules. For the histamine assay, 1 × 10^4 cells per well were seeded in StemPro®-34 SFM in 96-well plates for 30 min before any treatments. For agonist studies, the cells were treated with compounds prepared in media for 30 min. For antagonist studies, the cells were pre-treated with compounds prepared in SFM for 30 min before addition of C3aR agonists for another 30 min. Cells were centrifuged (500 g, 5 min, 4 °C) and cell-free supernatants were collected for measuring histamine. Histamine content was measured using the histamine EIA kit according to the manufacturer’s instructions (Abnova, Taiwan). The readings were recorded on a FLUOstar Optima (BMG LabTechnologies, Offenburg, Germany).

`N=C(N)NCCCC(NC(=O)c1ccc(C(c2ccccc2)c2ccccc2)s1)C(=O)O` (stereo not shown) [Compound 6] gave an IC50 of 3.5 ± 1.5 nM.
